Experimental findings from article PMC9186373, “Design, synthesis, and biological evaluation of novel carbazole derivatives as potent DNMT1 inhibitors with reasonable PK properties” (Journal of Enzyme Inhibition and Medicinal Chemistry, 2022) are described below.

One series in a line: PK study in SD rats. As to conditions: rat, plasma, SD male rats; for AUC(0-t) / Tmax / half-life: mean ± SD (n = 3); for bioavailability: p.o. 10 mg/kg vs i.v. 2 mg/kg, F = (AUC p.o. × Dose i.v.)/(AUC i.v. × Dose p.o.) × 100%. Format: in vivo. The method, then:
In vivo pharmacokinetic properties of WK-22, WK-23, WK-27, and DC_517 were performed by Medicilon Company, Shanghai, China. SPF-grade SD male rats (8 groups, n = 3 rats per group) with a body weight of 230–260 g were purchased from Shanghai SIPPR-BK LAB Animal Ltd., Shanghai, China, and used for the pharmacokinetic analysis of the tested compounds. All animals were deprived of food overnight after the cannulation surgery. Subsequently, the tested compounds WK-23 and DC_517 were dissolved/suspended in 5% DMSO, 10% Solutol, and 85% water, and the tested compounds WK-22 and WK-27 were dissolved/suspended in 5% DMSO, 40% PEG400, and 55% saline for intravenous administration (i.v.) and oral administration (p.o.), respectively. A final dosage of 2.0 and 10.0 mg/kg rat of the formulated compounds was administered for i.v. and p.o. purposes, respectively, and the blood samples were taken at various time points during a 24 h period. At different time points, blood samples were collected from the femoral vein. The plasma samples were obtained after centrifugation (6800 g, 6 min, 2–8 °C) and stored at −80 °C until the assay. The AUC (area under concentration-time curve) was calculated through the trapezoidal rule with extrapolation to time infinity. The concentration of the compounds in the blood was analysed by LC-MS/MS (Shimadzu liquid chromatographic system and SCIEX Triple Quad 5500+ mass spectrometer, Applied Biosystems, Ontario, Canada). The Tmax, T1/2, and Cmax value was obtained through visual inspection of the plasma concentration-time curve. The Vss value was generated from DAS 3.2.8 software. The F value of WK-23 was calculated with the formula: F = (AUC p.o. × Dose i.v.)/(AUC i.v. × Dose p.o.) × 100%.

`CC(C)NCC(O)COC(Cn1c2ccc(F)cc2c2cc(F)ccc21)Cn1c2ccc(F)cc2c2cc(F)ccc21` (stereo not shown) [WK-22, 1-((1,3-Bis(3,6-difluoro-9H-carbazol-9-yl)propan-2-yl)oxy)-3-(isopropylamino)propan-2-ol]: the melting point (in general, the temperature, or range, at which the solid turns liquid) is 89 to 91 °C. In “PK study in SD rats” (iv, i.v. (2 mg/kg)), the area under the curve AUC(0-t) – broadly, the area under the concentration-time curve up to a stated or last time point – was determined as 867 ± 15.9 ng·h/mL; the Tmax (usually the time at which the peak concentration occurs) came out at 0.1 h; the half-life (in general, how long it takes for the measured level to halve) was 12.2 ± 0.8 h. In addition, in the series “PK study in SD rats” (oral), the bioavailability (as a rule, dose-corrected exposure relative to a reference, in per cent) was 27%. This molecule had a bioavailability in the series “PK study in SD rats” (po) of 27 ± 4.6%. In the series “PK study in SD rats” (po, p.o. (10 mg/kg)), the AUC(0-t) came to 1170 ± 197 ng·h/mL, the Tmax came to 7.3 ± 1.2 h and the half-life is 8.8 ± 1.3 h.

With `CC(C)NCC(O)COC(Cn1c2ccccc2c2cc(F)ccc21)Cn1c2ccccc2c2cc(F)ccc21` (stereo not shown) [WK-23, 1-((1,3-bis(3-fluoro-9H-carbazol-9-yl)propan-2-yl)oxy)-3-(isopropylamino)propan-2-ol], in “PK study in SD rats” (iv, i.v. (2 mg/kg)), the exposure AUC(0-t) came out at 1060 ± 121 ng·h/mL, the time of peak concentration (Tmax) came to 0.08 h and the half-life is 7.9 ± 1 h. The molecule further displayed a bioavailability in “PK study in SD rats” (po) of 37.1 ± 1.7%. Besides, in “PK study in SD rats” (po, p.o. (10 mg/kg)), the AUC(0-t) is 1970 ± 91.1 ng·h/mL, the Tmax is 6.7 ± 1.2 h and the half-life is 6.5 ± 0.3 h.
